Paper PMC8955712, “Rapid Mining of Novel α-Glucosidase and Lipase Inhibitors from Streptomyces sp. HO1518 Using UPLC-QTOF-MS/MS” (Marine Drugs, 2022)
Where two headings read alike, the source gives them in different places.

Key:
Format in all cases: biochemical
sucrase = experiment: Sucrase inhibition assay; settings: mean ± SD; acarbose positive control; read-out: IC50 Values Against Sucrase
Excerpt: (§1) The HPLC-grade methanol and acetonitrile were purchased from CINC High Purity Solvents (Shanghai) Co., Ltd. (Shanghai, China). The other solvents were of analytical grade (Sinopharm Chemical Reagent Co., Ltd., Beijing, China). Porcine pancreatic α-amylase (PPA) and PL were purchased from Sigma Aldrich Co. (St Louis, MO, USA). Sucrase and acarbose were obtained from Shanghai yuanye Bio-Technology Co., Ltd. (Shanghai, China). Orlistat was bought from Shanghai xushuo Bio-Technology Co., Ltd. (Shanghai, China). Standards 1–9 were previously isolated from Streptomyces sp. HO1518 by our group.
The sucrase inhibition assay of compounds 9–20 was evaluated according to the previously reported method.

pancreatic lipase (PL) = molecular target: T1, pancreatic lipase (PL) (Sus scrofa, UniProt P00591); experiment: PL (lipase) inhibition assay; settings: read-out: IC50 Values Against PL
T1 construct: purchased Sigma Aldrich Co. (St Louis, MO, USA)
T1 sequence (P00591 1-450): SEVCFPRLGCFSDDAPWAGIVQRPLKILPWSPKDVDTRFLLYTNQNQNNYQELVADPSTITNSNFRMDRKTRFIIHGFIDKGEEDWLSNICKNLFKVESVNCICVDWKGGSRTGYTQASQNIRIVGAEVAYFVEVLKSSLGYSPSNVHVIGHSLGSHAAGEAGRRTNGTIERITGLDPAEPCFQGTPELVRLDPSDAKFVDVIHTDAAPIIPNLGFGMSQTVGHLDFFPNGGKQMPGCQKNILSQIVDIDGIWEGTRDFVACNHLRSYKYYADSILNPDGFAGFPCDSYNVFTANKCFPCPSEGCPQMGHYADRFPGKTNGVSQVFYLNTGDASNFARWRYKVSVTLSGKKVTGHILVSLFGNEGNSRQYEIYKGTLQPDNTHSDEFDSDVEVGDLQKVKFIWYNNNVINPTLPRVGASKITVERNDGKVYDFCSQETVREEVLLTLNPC
Excerpt: as §1, with “Sucrase and acarbose were obtained from Shanghai yuanye Bio-Technology Co., Ltd. (Shanghai, China). Orlistat was bought from Shanghai xushuo Bio-Technology Co., Ltd. (Shanghai, China).” left out

[1] = molecular target: T2, Porcine pancreatic α-amylase (PPA) (Sus scrofa, UniProt P00690); experiment: PPA inhibition assay; settings: for IC50: read-out: IC50 Values Against PPA
T2 construct: purchased Sigma Aldrich Co. (St Louis, MO, USA)
T2 sequence (P00690 16-511): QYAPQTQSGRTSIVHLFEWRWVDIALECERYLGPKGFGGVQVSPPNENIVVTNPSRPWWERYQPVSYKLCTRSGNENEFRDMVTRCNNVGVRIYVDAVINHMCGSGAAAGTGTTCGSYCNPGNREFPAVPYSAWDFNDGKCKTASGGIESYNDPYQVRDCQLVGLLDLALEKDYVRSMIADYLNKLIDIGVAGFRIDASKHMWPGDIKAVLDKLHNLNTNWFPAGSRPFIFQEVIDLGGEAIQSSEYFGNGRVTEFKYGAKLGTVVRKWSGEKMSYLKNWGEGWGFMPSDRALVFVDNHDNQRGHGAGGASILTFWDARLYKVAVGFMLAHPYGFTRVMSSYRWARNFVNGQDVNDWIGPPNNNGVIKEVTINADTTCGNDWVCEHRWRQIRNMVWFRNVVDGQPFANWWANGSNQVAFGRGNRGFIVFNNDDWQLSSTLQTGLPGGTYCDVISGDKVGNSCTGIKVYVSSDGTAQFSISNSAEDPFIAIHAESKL
Excerpt: as §1, with “Sucrase and acarbose were obtained from Shanghai yuanye Bio-Technology Co., Ltd. (Shanghai, China). Orlistat was bought from Shanghai xushuo Bio-Technology Co., Ltd. (Shanghai, China).” left out

[2] = mean ± SD, acarbose positive control
[3] = mean ± SD, orlistat positive control

Row | SMILES | IC50 (sucrase) [µM] | IC50 (pancreatic lipase (PL)) [µM] | IC50 [1, 2] [µM] | IC50 (pancreatic lipase (PL); [3]) [µM] | IC50 [1] [µM] | fold more effective than acarbose (α-amylase inhibition) ([1]; ratio of PPA IC50 values, acarbose vs compound) [fold]
1 | C[C@H]1O[C@H](O[C@H]2[C@H](O)[C@@H](O)[C@@H](O[C@H]3[C@H](O)[C@@H](O)C(O)O[C@@H]3CO)O[C@@H]2CO)[C@H](O)[C@@H](O)[C@@H]1N[C@H]1C=C(CO)[C@@H](O)[C@H](O)[C@H]1O (stereo partly drawn) [acarbose, reference compound] | 2.34 ± 0.23 | 191 ± 15.2 |  |  |  | 
2 | CCC(=O)OC[C@H]1O[C@H](O[C@H]2[C@H](O)[C@@H](O)[C@@H](O[C@H]3[C@H](O)[C@@H](O)[C@@H](O[C@H]4[C@H](O)[C@@H](O)C(O)O[C@@H]4CO)O[C@@H]3CO)O[C@@H]2CO)[C@H](O)[C@@H](O)[C@@H]1O[C@H]1O[C@H](C)[C@@H](N[C@H]2C=C(CO)[C@@H](O[C@H]3O[C@H](CO)[C@@H](O[C@H]4O[C@H](C)[C@@H](N[C@H]5C=C(CO)[C@@H](O)[C@H](O)[C@H]5O)[C@H](O)[C@H]4O)[C@H](O)[C@H]3O)[C@H](O)[C@H]2O)[C@H](O)[C@H]1O (stereo partly drawn) [Compound 14, D6-O-Propionyl-acarviostatin II03] | 2.56 ± 0.12 |  | 0.035 ± 0.001 | 4.21 ± 0.03 |  | 
3 | CC(O)CC(=O)OC[C@H]1O[C@H](O[C@H]2[C@H](O)[C@@H](O)[C@@H](O[C@H]3[C@H](O)[C@@H](O)[C@@H](O[C@H]4[C@H](O)[C@@H](O)C(O)O[C@@H]4CO)O[C@@H]3CO)O[C@@H]2CO)[C@H](O)[C@@H](O)[C@@H]1O[C@H]1O[C@H](C)[C@@H](N[C@H]2C=C(CO)[C@@H](O[C@H]3O[C@H](CO)[C@@H](O[C@H]4O[C@H](C)[C@@H](N[C@H]5C=C(CO)[C@@H](O)[C@H](O)[C@H]5O)[C@H](O)[C@H]4O)[C@H](O)[C@H]3O)[C@H](O)[C@H]2O)[C@H](O)[C@H]1O (stereo partly drawn) [Compound 19, Hbu-Aca II03] | 9.67 ± 0.1 |  | 0.061 ± 0.005 | 1 ± 0.12 |  | 
4 | CC(C)C(=O)OC[C@H]1O[C@H](O[C@H]2[C@H](O)[C@@H](O)[C@@H](O[C@H]3[C@H](O)[C@@H](O)C(O)O[C@@H]3CO)O[C@@H]2CO)[C@H](O)[C@@H](O)[C@@H]1O[C@H]1O[C@H](C)[C@@H](N[C@H]2C=C(CO)[C@@H](O[C@H]3O[C@H](CO)[C@@H](O[C@H]4O[C@H](C)[C@@H](N[C@H]5C=C(CO)[C@@H](O)[C@H](O)[C@H]5O)[C@H](O)[C@H]4O)[C@H](O)[C@H]3O)[C@H](O)[C@H]2O)[C@H](O)[C@H]1O (stereo partly drawn) [Compound 12, D6-O-Isobutyryl-acarviostatin II02] | 6.79 ± 0.06 | 5.48 ± 0.18 |  |  | 0.085 ± 0.006 | 
5 | CCC(=O)OC[C@H]1O[C@H](O[C@H]2[C@H](O)[C@@H](O)[C@@H](O[C@H]3[C@H](O)[C@@H](O)C(O)O[C@@H]3CO)O[C@@H]2CO)[C@H](O)[C@@H](O)[C@@H]1O[C@H]1O[C@H](C)[C@@H](N[C@H]2C=C(CO)[C@@H](O[C@H]3O[C@H](CO)[C@@H](O[C@H]4O[C@H](C)[C@@H](N[C@H]5C=C(CO)[C@@H](O)[C@H](O)[C@H]5O)[C@H](O)[C@H]4O)[C@H](O)[C@H]3O)[C@H](O)[C@H]2O)[C@H](O)[C@H]1O (stereo partly drawn) [Compound 11, D6-O-Propionyl-acarviostatin II02] | 4.34 ± 0.24 | 7.22 ± 0.1 |  |  | 0.079 ± 0.001 | 
6 | CCCC(=O)OC[C@H]1O[C@H](O[C@H]2[C@H](O)[C@@H](O)[C@@H](O[C@H]3[C@H](O)[C@@H](O)[C@@H](O[C@H]4[C@H](O)[C@@H](O)C(O)O[C@@H]4CO)O[C@@H]3CO)O[C@@H]2CO)[C@H](O)[C@@H](O)[C@@H]1O[C@H]1O[C@H](C)[C@@H](N[C@H]2C=C(CO)[C@@H](O[C@H]3O[C@H](CO)[C@@H](O[C@H]4O[C@H](C)[C@@H](N[C@H]5C=C(CO)[C@@H](O)[C@H](O)[C@H]5O)[C@H](O)[C@H]4O)[C@H](O)[C@H]3O)[C@H](O)[C@H]2O)[C@H](O)[C@H]1O (stereo partly drawn) [Compound 15, D6-O-Butyryl-acarviostatin II03] | 10.7 ± 2.6 |  | 0.059 ± 0.007 | 4.46 ± 0.14 |  | 
7 | CCC(C)C(=O)OC[C@H]1O[C@H](O[C@H]2[C@H](O)[C@@H](O)[C@@H](O[C@H]3[C@H](O)[C@@H](O)[C@@H](O[C@H]4[C@H](O)[C@@H](O)C(O)O[C@@H]4CO)O[C@@H]3CO)O[C@@H]2CO)[C@H](O)[C@@H](O)[C@@H]1O[C@H]1O[C@H](C)[C@@H](N[C@H]2C=C(CO)[C@@H](O[C@H]3O[C@H](CO)[C@@H](O[C@H]4O[C@H](C)[C@@H](N[C@H]5C=C(CO)[C@@H](O)[C@H](O)[C@H]5O)[C@H](O)[C@H]4O)[C@H](O)[C@H]3O)[C@H](O)[C@H]2O)[C@H](O)[C@H]1O (stereo partly drawn) [Compound 16, D6-O-2-Methyl-butyryl-acarviostatin II03] | 7.28 ± 0.1 |  | 0.052 ± 0.003 | 1.34 ± 0.03 |  | 
8 | C[C@H]1O[C@H](O[C@H]2[C@H](O)[C@@H](O)[C@@H](O[C@H]3[C@H](O)[C@@H](O)[C@@H](O[C@H]4[C@H](O)[C@@H](O)C(O)O[C@@H]4CO)O[C@@H]3CO)O[C@@H]2CO)[C@H](O)[C@@H](O)[C@@H]1N[C@H]1C=C(CO)[C@@H](O[C@H]2O[C@H](CO)[C@@H](O[C@H]3O[C@H](C)[C@@H](N[C@H]4C=C(CO)[C@@H](O)[C@H](O)[C@H]4O)[C@H](O)[C@H]3O)[C@H](O)[C@H]2O)[C@H](O)[C@H]1O (stereo partly drawn) [Compound 10, Acarviostatin II02] | 13.1 ± 0.55 | 12.7 ± 0.76 |  |  | 0.084 ± 0.001 | 
9 | CCCC(=O)OC[C@H]1O[C@H](O[C@H]2[C@H](O)[C@@H](O)[C@@H](O[C@H]3[C@H](O)[C@@H](O)[C@@H](O[C@H]4[C@H](O)[C@@H](O)C(O)O[C@@H]4CO)O[C@@H]3CO)O[C@@H]2CO)[C@H](O)[C@@H](O)[C@@H]1O[C@H]1O[C@H](C)[C@@H](N[C@H]2C=C(CO)[C@@H](O)[C@H](O)[C@H]2O)[C@H](O)[C@H]1O (stereo partly drawn) [Compound 18, Bu-Aca I03] | 3.8 ± 0.78 | 11.7 ± 2.52 |  |  | 0.402 ± 0.008 | 
10 | CC(C)CC(=O)OC[C@H]1O[C@H](O[C@H]2[C@H](O)[C@@H](O)[C@@H](O[C@H]3[C@H](O)[C@@H](O)C(O)O[C@@H]3CO)O[C@@H]2CO)[C@H](O)[C@@H](O)[C@@H]1O[C@H]1O[C@H](C)[C@@H](N[C@H]2C=C(CO)[C@@H](O[C@H]3O[C@H](CO)[C@@H](O[C@H]4O[C@H](C)[C@@H](N[C@H]5C=C(CO)[C@@H](O)[C@H](O)[C@H]5O)[C@H](O)[C@H]4O)[C@H](O)[C@H]3O)[C@H](O)[C@H]2O)[C@H](O)[C@H]1O (stereo partly drawn) [Compound 13, D6-O-Isovaleryl-acarviostatin II02] | 7.06 ± 0.09 | 1.56 ± 0.04 |  |  | 0.092 ± 0.001 | 
11 | CC(C)CC(=O)OC[C@H]1O[C@H](O[C@H]2[C@H](O)[C@@H](O)[C@@H](O[C@H]3[C@H](O)[C@@H](O)[C@@H](O[C@H]4[C@H](O)[C@@H](O)C(O)O[C@@H]4CO)O[C@@H]3CO)O[C@@H]2CO)[C@H](O)[C@@H](O)[C@@H]1O[C@H]1O[C@H](C)[C@@H](N[C@H]2C=C(CO)[C@@H](O[C@H]3O[C@H](CO)[C@@H](O[C@H]4O[C@H](C)[C@@H](N[C@H]5C=C(CO)[C@@H](O)[C@H](O)[C@H]5O)[C@H](O)[C@H]4O)[C@H](O)[C@H]3O)[C@H](O)[C@H]2O)[C@H](O)[C@H]1O (stereo partly drawn) [Compound 20, isoVa-Aca II03] | 9.93 ± 0.5 |  | 0.08 ± 0.003 | 1.43 ± 0.08 |  | 
12 | CC1OC(OC2C(CO)OC(OC3C(CO)=CC(NC4C(C)OC(OC5C(CO)OC(OC6C(CO)OC(OC7C(CO)OC(OC8C(CO)OC(O)C(O)C8O)C(O)C7O)C(O)C6O)C(O)C5O)C(O)C4O)C(O)C3O)C(O)C2O)C(O)C(O)C1NC1C=C(CO)C(O)C(O)C1O (stereo not drawn) [Compound 9, acarviostatin II03] | 17.2 ± 0.76 | 7.64 ± 0.13 |  |  | 0.03 ± 0.001 | 282
13 | C[C@H]1O[C@H](O[C@H]2[C@H](O)[C@@H](O)[C@@H](O[C@H]3[C@H](O)[C@@H](O)[C@@H](O[C@H]4[C@H](O)[C@@H](O)[C@@H](O[C@H]5[C@H](O)[C@@H](O)C(O)O[C@@H]5CO)O[C@@H]4CO)O[C@@H]3CO)O[C@@H]2CO)[C@H](O)[C@@H](O)[C@@H]1N[C@H]1C=C(CO)[C@@H](O)[C@H](O)[C@H]1O (stereo partly drawn) [Compound 17, acarviostatin I03] | 11.1 ± 0.24 | 31.6 ± 4.13 |  |  | 0.296 ± 0.007 | 
